Values of other authors as cited in article PMC2110886 (PLoS ONE, 2007).

Tested on: Seasonal influenza strains
Parameters: method as in PMID 15709056
Conditions: in children; cited from earlier work

For `CCOC(=O)C1=C[C@@H](OC(CC)CC)[C@H](NC(C)=O)[C@@H](N)C1` [Oseltamivir, oseltamivir, reference compound], the “rate of resistance to oseltamivir” value is given as 4%.
